# In patent US8796474:
# Conditions: from CC[C@@H](O)C(C)=C=C[C@@H](OCc1ccccc1)[C@H](C)CC(C)=C=C[C@H](OCc1ccccc1)[C@@H](C)C(=O)O; ester bond; 2,4,6-trichlorobenzoyl chloride / TEA / DMAP (Yamaguchi); toluene; 3.18 mM; 80.0 °C; 8.0 h
compound,measurement,value
CC[C@H]1OC(=O)[C@H](C)[C@@H](OCc2ccccc2)C=C=C(C)C[C@@H](C)[C@H](OCc2ccccc2)C=C=C1C,"ring closure, yield of all isomers",64%
